The values that follow come from the supplement of paper PMC11368000.

Holding throughout (details): exposure time: 90 min
Assay [1] concerns 1434 (donor line of iPSC-derived cardiomyocytes). Description: POD (EC10) for decrease in total cell number (cytotoxicity) vs vehicle; higher = less potent (higher point of departure). Summed up:
(§1)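 After 14 days of culture in 384-well plates, human iPSC-derived cardiomyocytes from 16 donors received 0.1, 1, 10 or 100 µM (final, 0.5% DMSO) for 90 min at 37 °C. Nuclei were then counted per field in MetaXpress from 10× images after Hoechst 33342 staining, and a 10% decrease in vehicle-normalised counts served as the benchmark. For each donor, the cytotoxicity point of departure came from a hierarchical Bayesian Hill fit.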

Assay [2] concerns 1392 (donor line of iPSC-derived cardiomyocytes). The description is as above. Summed up:
as §1

Assay [3] relates to 30145 (donor line of iPSC-derived cardiomyocytes). Described as above. The gist of the method: as §1
Assay [4] relates to 1518 (donor line of iPSC-derived cardiomyocytes). The assay is described as above. Summed up: as §1
Another assay relates to 1516 (donor line of iPSC-derived cardiomyocytes). Kind of assay: POD (EC95) for loss of peak frequency (asystole) vs vehicle; higher = less potent (higher point of departure). The gist of the method:
(§2)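 Cardiomyocytes from human iPSCs of 16 donors spent 14 days in gelatin-coated 384-well plates before 2 h of fluorescent Ca2+ dye loading. They were then held for 90 min at 37 °C at final concentrations of 0.1, 1, 10 and 100 µM containing 0.5% DMSO, and Ca2+ flux was read on a FLIPR Tetra (8 frames/s, 100 s) before and after. Donor-level points of departure were taken from hierarchical Bayesian Hill fits to vehicle-normalised beat frequency, decay-to-rise ratio or peak frequency. For these, a 5% change was the threshold, or a 95% loss for peak frequency.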

In the next assay the test system is 1565 (donor line of iPSC-derived cardiomyocytes). The assay is described as above. The gist of the method: as §2
A further assay concerns 1309 (donor line of iPSC-derived cardiomyocytes). The assay is described as above. Summed up:
as §2

A further assay relates to 1118 (donor line of iPSC-derived cardiomyocytes). Described as above. Summed up:
as §2

Assay [5] deals with 1434. The description is as above. The gist of the method:
as §2

Another assay concerns 20084 (donor line of iPSC-derived cardiomyocytes). The description is as above. Summed up: as §2
Assay [6] relates to 1392. The assay is described as above. Summed up:
as §2

The test system of assay [7] is 30145. The description is as above. Summed up: as §2
The next assay relates to 30171 (donor line of iPSC-derived cardiomyocytes). The assay is described as above. The gist of the method: as §2
The next assay concerns 1083 (donor line of iPSC-derived cardiomyocytes). Described as above. Summed up:
as §2

A further assay deals with 20032 (donor line of iPSC-derived cardiomyocytes). The description is as above. The gist of the method:
as §2

The subject of a further assay is 1368 (donor line of iPSC-derived cardiomyocytes). The description is as above. The gist of the method: as §2
A further assay has as its system 11235 (donor line of iPSC-derived cardiomyocytes). Described as above. Summed up: as §2
The subject of a further assay is 1531 (donor line of iPSC-derived cardiomyocytes). The assay is described as above. Summed up: as §2
Assay [8] has as its system 1518. The description is as above. The gist of the method: as §2
The subject of another assay is 1535 (donor line of iPSC-derived cardiomyocytes). The description is as above. The gist of the method: as §2

Turning to `NC(=O)C(F)(F)C(F)(F)C(F)(F)C(F)F`, the POD vs vehicle with 1434 [1], with 1392 [2], with 30145 [3], in the assay with 1518 [4], in the assay on 1516 and in the assay with 1565 was above 100 µM throughout. The POD vs vehicle in the assay with 1309, with 1118, in the assay with 1434 [5], with 20084, in the assay with 1392 [6] and with 30145 [7] was above 100 µM throughout. The POD vs vehicle with 30171, in the assay with 1083, with 20032, in the assay with 1368, in the assay with 11235 and in the assay on 1531 was above 100 µM throughout. Further, the POD vs vehicle in the assay with 1518 [8] and in the assay on 1535 was above 100 µM each time.

As to `N=C(N)C(F)(F)C(F)(F)C(F)(F)C(F)(F)C(F)(F)C(F)(F)C(F)(F)F` [Perfluorooctanamidine], the POD vs vehicle in the assay with 1434 [1], in the assay with 1392 [2], in the assay on 30145 [3], with 1518 [4], in the assay with 1516 and in the assay with 1565 was above 100 µM throughout. In addition, the POD vs vehicle was above 100 µM in the assay with 1309; 25.6 µM in the assay on 1118; above 100 µM with 1434 [5]; above 100 µM in the assay with 20084; above 100 µM in the assay on 1392 [6]; above 100 µM in the assay with 30145 [7]. Besides, the POD vs vehicle in the assay on 30171, in the assay on 1083, with 20032, in the assay on 1368, with 11235 and in the assay on 1531 was above 100 µM throughout. Besides, the POD vs vehicle in the assay with 1518 [8] and in the assay on 1535 was above 100 µM each time.

For the molecule `OCC(F)(F)C(F)(F)C(F)(F)C(F)(F)C(F)(F)C(F)F` [Dodecafluoroheptanol], the POD vs vehicle in the assay on 1434 [1] is above 100 µM; in the assay on 1392 [2] it was above 100 µM; in the assay on 30145 [3], above 100 µM; in the assay with 1518 [4], above 100 µM; in the assay on 1516, 48.2 µM; with 1565, 50.6 µM. In addition, the POD vs vehicle with 1309 turned out to be 50.3 µM; with 1118 it was 7.54 µM; in the assay on 1434 [5], 45.8 µM; with 20084, 48.6 µM; in the assay with 1392 [6], 45 µM; in the assay on 30145 [7], 47.9 µM. Also, the POD vs vehicle with 30171 came to 51.8 µM; with 1083, 38.1 µM; in the assay with 20032, 47.7 µM; in the assay with 1368, 35.7 µM; in the assay with 11235, 48.1 µM; with 1531 it was 42.6 µM. Also, the results for the POD vs vehicle with 1518 [8] and with 1535 were 38.1 µM and 46.3 µM, respectively.

For the molecule `O=C(O)C=CC(F)(C(F)(F)F)C(F)(F)F` [3-(Perfluoroisopropyl)-2-propenoic_acid], the POD vs vehicle with 1434 [1], in the assay with 1392 [2], in the assay with 30145 [3], in the assay on 1518 [4], with 1516 and in the assay with 1565 was above 100 µM throughout. For the same molecule, the POD vs vehicle in the assay with 1309, in the assay on 1118, in the assay on 1434 [5], with 20084, with 1392 [6] and with 30145 [7] was above 100 µM in each case. Besides, the POD vs vehicle with 30171, with 1083, in the assay on 20032, in the assay on 1368, in the assay with 11235 and in the assay on 1531 was above 100 µM in each case. The POD vs vehicle with 1518 [8] and in the assay on 1535 was above 100 µM in each case.

For `NC(=O)C(F)(F)C(F)(F)C(F)(F)F` [Heptafluorobutyramide], the POD vs vehicle in the assay on 1434 [1], with 1392 [2], in the assay on 30145 [3], in the assay with 1518 [4], with 1516 and in the assay on 1565 was above 100 µM throughout. In addition, the POD vs vehicle in the assay on 1309, with 1118, in the assay on 1434 [5], in the assay with 20084, in the assay on 1392 [6] and in the assay with 30145 [7] was above 100 µM in each case. Moreover, the POD vs vehicle in the assay with 30171, with 1083, in the assay on 20032, in the assay with 1368, with 11235 and in the assay on 1531 was above 100 µM throughout. Also, the POD vs vehicle with 1518 [8] and with 1535 was above 100 µM throughout.

Take `OCC(F)(F)C(F)(F)C(F)(F)F` [Heptafluorobutanol]: the POD vs vehicle in the assay on 1434 [1], in the assay with 1392 [2], with 30145 [3], in the assay on 1518 [4], with 1516 and in the assay with 1565 was above 100 µM throughout. Further, the POD vs vehicle with 1309, in the assay with 1118, in the assay with 1434 [5], in the assay on 20084, with 1392 [6] and in the assay on 30145 [7] was above 100 µM throughout. In addition, the POD vs vehicle with 30171, with 1083, in the assay on 20032, with 1368, in the assay on 11235 and in the assay on 1531 was above 100 µM each time. The POD vs vehicle in the assay with 1518 [8] and with 1535 was above 100 µM throughout.

On to `O=C(CC(=O)C(F)(F)C(F)(F)F)C(F)(F)F` [3H,3H-Perfluoro-2,4-hexanedione], for which the POD vs vehicle with 1434 [1] was 21.9 µM; in the assay on 1392 [2], 93.5 µM; in the assay with 30145 [3] it was above 100 µM; in the assay on 1518 [4], above 100 µM; in the assay with 1516 it was above 100 µM; in the assay on 1565, above 100 µM. Also, the POD vs vehicle in the assay on 1309 was above 100 µM; in the assay on 1118, 80.5 µM; with 1434 [5] it was 78.3 µM; in the assay on 20084, above 100 µM; in the assay with 1392 [6] it was above 100 µM; in the assay with 30145 [7], above 100 µM. The POD vs vehicle with 30171 was 79.9 µM; with 1083 it was above 100 µM; in the assay with 20032 it was above 100 µM; in the assay with 1368, above 100 µM; with 11235, 87.4 µM; in the assay with 1531 it was above 100 µM. The POD vs vehicle in the assay with 1518 [8] and in the assay on 1535 was above 100 µM each time.
